# Marks after values point to notes of the source that are not given here. Residues, ends and D or L forms follow the SMILES beside them.
# Key:
# Type in all cases: in vivo
# [1] = tested on: medial sensilla of Spodoptera littoralis larvae; assay: Electrophysiology: neural response of the medial sensilla after cannulation; conditions: for Impulses per second from the medial styloconic sensilla, stimulus C: stimulus KCl (0.05M); for Impulses per second from the medial styloconic sensilla, stimulus P: stimulus amino acid mixture; for Impulses per second from the medial styloconic sensilla, stimulus G: stimulus glucose (0.05M); for Impulses per second from the medial styloconic sensilla, stimulus S: stimulus sucrose (0.05M)
# Description: Insects use sensilla on their mouthparts to taste their food. These sensilla contain neurones that respond to compounds in their food. An electrophysiological bioassay has been developed to record the neural impulses from the four neurones in each sensilla. […] Previous experiments have shown that the responsiveness of the insects can be influenced by the diet an insect has been reared on and previous exposure to a compound. The physiological condition of the insect can also influence the responsiveness of these neurones. In these experiments, we […] classify the neurones down to specific neurones but this requires some further experiments not undertaken in this study. […] Each larva was tested with KCl (C=0.05M) as a control, sucrose (S=0.05M), glucose (G=0.05M) and amino acid mix (P=0.05M). A set of experiments were undertaken on a control non-cannulated group of insects. […] Prior to the experiment, the insects had been standardized as in the behavioral experiments.
# [2] = tested on: Spodoptera littoralis; assay: Binary choice glass-fiber disc feeding bioassay (Feeding Index); conditions: for Feeding response in words, in combination with glucose: glucose 0.05M; for Feeding response in words, in combination with glucose / Feeding response in words, in combination with sucrose: 100, 1000 and 10,000 ppm; for Feeding Index: n = 15; for Feeding response in words, in combination with sucrose: sucrose 0.05M
# Description: All experiments were done on the final stage larvae of Spodoptera littoralis. Prior to the experiment, the insects were deprived of food for 2 hours. This has been calculated as a period when most insects would commence feeding. Thus, the food from the previous meal has started to pass into and through the gut. The initial experiment investigated whether the insects could “taste” the plant preparations or extracts and whether they stimulated or deterred feeding. […] A negative value indicates a phagostimulant and a positive value indicates an appetite suppressant. Experiments are usually repeated with between 10-20 insects and the data are analysed using the Wilcoxon matched pairs test. A series of controls were used at the start of the experiment to illustrate the difference in the response of the larvae to sucrose and glucose both tested at 0.05M. Results have been presented as means.
# [3] = tested on: larvae of Spodoptera littoralis; assay: Behavioral response of cannulated insects to glucose (latency, meal duration, time to second meal); conditions: glucose treated disc, solvent water
# Description: Material and methods. Final stage larvae were removed from food and after 2 hours, they were cannulated via the oral cavity with […] of a test solution, with water used as a control. The extracts were tested at 10,000 ppm, 1,000 ppm and 100 ppm. The insects were then placed in a Petri dish with a glucose treated glass-fiber disc. The time taken for the insects to start a meal (latency), the duration of a meal (meal duration) and the time taken to take the second meal were recorded. This provides information about whether the extracts once consumed would delay feeding, whether the extracts would alter the duration of a meal once it had started, and whether the time to the second meal would be altered. […] The time to the start of a meal was extended, when compared with the water control, after cannulation with Aloe and Ginseng. Aloe acted as stimulants in the glass-fiber disc bioassays, whereas Ginseng was a potent suppressant. Thus, the Ginseng could be having a negative activity on time to feed, whereas the response to Aloe could be because of a “positive” response. The end effect is the same in that both groups caused an increase in the latency to feed. […] None of the extracts influenced the duration of the first recorded meal.
# [4] = 30 min after cannulation at 1000 ppm
# [5] = 1 h after cannulation at 1000 ppm
# [6] = in combination with glucose 0.05M, extract 100 ppm
# [7] = in combination with glucose 0.05M, extract 1,000 ppm
# [8] = in combination with glucose 0.05M, extract 10,000 ppm
# [9] = in combination with sucrose 0.05M, extract 100 ppm
# [10] = in combination with sucrose 0.05M, extract 1,000 ppm
# [11] = in combination with sucrose 0.05M, extract 10,000 ppm
SMILES,"Impulses per second from the medial styloconic sensilla, stimulus C [1, 4] [impulses per second]","Impulses per second from the medial styloconic sensilla, stimulus P [1, 4] [impulses per second]","Impulses per second from the medial styloconic sensilla, stimulus G [1, 4] [impulses per second]","Impulses per second from the medial styloconic sensilla, stimulus S [1, 4] [impulses per second]","Impulses per second from the medial styloconic sensilla, stimulus C [1, 5] [impulses per second]","Impulses per second from the medial styloconic sensilla, stimulus P [1, 5] [impulses per second]","Impulses per second from the medial styloconic sensilla, stimulus G [1, 5] [impulses per second]","Impulses per second from the medial styloconic sensilla, stimulus S [1, 5] [impulses per second]","Feeding response in words, in combination with glucose [2]","Feeding Index [2, 6]","Feeding Index [2, 7]","Feeding Index [2, 8] [%]","Feeding Index [2, 9] [%]","Feeding Index [2, 10] [%]","Feeding Index [2, 11] [%]","Feeding response in words, in combination with sucrose [2]",Latency ([3]; concentration 0.1k (100 ppm)) [min],Meal duration ([3]; concentration 0.1k (100 ppm)) [min],Time to 2nd meal ([3]; concentration 0.1k (100 ppm)) [min],"Latency ([3]; concentration 1k (1,000 ppm)) [min]",further results
COC(=O)[C@H](Cc1ccccc1)NC(=O)[C@@H](N)CC(=O)O [Aspartame] (H-Asp-Phe-OMe),10,24,45,57,12,24,25,48,stimulated feeding at lower concentrations,−25* %,−31* %,−24,−15,14,15,not significant,21,17,15,24,"Meal duration ([3]; concentration 1k (1,000 ppm)): 12 min; Time to 2nd meal ([3]; concentration 1k (1,000 ppm)): 15 min; Latency ([3]; concentration 10k (10,000 ppm)): 20 min; Meal duration ([3]; concentration 10k (10,000 ppm)): 12 min; Time to 2nd meal ([3]; concentration 10k (10,000 ppm)): 17 min"
O=C1NS(=O)(=O)c2ccccc21 [Saccharin],9,29,45,65,15,47,28,48,stimulated feeding at lower concentrations,−24* %,−25* %,−18,−16,−5,5,not significant,24,16,11,24,"Meal duration ([3]; concentration 1k (1,000 ppm)): 14 min; Time to 2nd meal ([3]; concentration 1k (1,000 ppm)): 18 min; Latency ([3]; concentration 10k (10,000 ppm)): 25 min; Meal duration ([3]; concentration 10k (10,000 ppm)): 14 min; Time to 2nd meal ([3]; concentration 10k (10,000 ppm)): 18 min"
OC[C@H]1O[C@@](CO)(O[C@H]2O[C@H](CO)[C@@H](O)[C@H](O)[C@H]2O)[C@@H](O)[C@@H]1O [Sucrose],–,–,–,–,–,–,–,–,–,–,–,–,–,–,–,–,–,–,–,–,"Feeding Index ([2]; control disc sucrose 0.05M versus treatment disc sucrose 0.05M, 18 hours): 10.7%; Feeding Index ([2]; control disc sucrose 0.05M versus untreated treatment disc, 18 hours): 46.3* %; Phagostimulant potency in words ([2]; sucrose versus glucose, both 0.05M): more potent phagostimulant to S. littoralis than glucose"
